Results as given in ChEMBL document CHEMBL1153520, “A multivalent approach to the design and discovery of orally efficacious 5-HT4 receptor agonists” (J Med Chem, 2009).

Experiments:
Homo sapiens = species on record: Homo sapiens; assay: Selectivity ratio of Ki for human 5HT3A receptor to Ki for human 5HT4C receptor
[1] = target: T1, 5-hydroxytryptamine receptor 4 (Homo sapiens, UniProt Q13639); assay: Agonist activity at human 5HT4C receptor expressed in HEK293 cells assessed as accumulation of cAMP by flash plate adenylyl cyclase activation assay; type: functional, cell-based
T1 sequence (Q13639 whole entry): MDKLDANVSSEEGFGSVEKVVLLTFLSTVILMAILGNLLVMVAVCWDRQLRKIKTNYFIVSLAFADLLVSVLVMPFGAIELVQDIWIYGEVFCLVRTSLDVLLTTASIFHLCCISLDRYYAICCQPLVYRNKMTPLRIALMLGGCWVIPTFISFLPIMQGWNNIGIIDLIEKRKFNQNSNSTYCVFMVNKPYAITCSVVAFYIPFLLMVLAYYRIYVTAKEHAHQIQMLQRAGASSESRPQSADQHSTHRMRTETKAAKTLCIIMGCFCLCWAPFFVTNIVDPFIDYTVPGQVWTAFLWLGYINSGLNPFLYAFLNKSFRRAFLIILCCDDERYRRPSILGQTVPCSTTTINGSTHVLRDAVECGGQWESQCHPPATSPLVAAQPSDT

[2] = target: T1, 5-hydroxytryptamine receptor 4; assay: Intrinsic activity at human 5HT4C receptor expressed in HEK293 cells assessed as accumulation of cAMP by flash plate adenylyl cyclase activation assay relative to serotonin; type: functional, cell-based
[3] = target: T1, 5-hydroxytryptamine receptor 4; assay: Displacement of [H]GR-113808 from human 5HT4C receptor expressed in HEK293 cells by liquid scintillation counting; type: cell-based

SMILES	Ratio Ki (Homo sapiens)	EC50 [1] [nM]	Intrinsic activity [2] [%]	Ki [3] [nM]
CC(C)n1c(=O)c(C(=O)N[C@H]2C[C@H]3CC[C@@H](C2)N3CCN(C)CCc2c[nH]c3ccccc23)cc2ccccc21	480	1.26	92	39.8
CC(C)n1c(=O)c(C(=O)N[C@H]2C[C@H]3CC[C@@H](C2)N3CCCCCN2CCCCC2)cc2ccccc21	8100	1	> 100	5.01
CC(C)n1c(=O)c(C(=O)N[C@H]2C[C@H]3CC[C@@H](C2)N3CCN2CCN(S(C)(=O)=O)CC2)cc2ccccc21	450	6.31	> 100	63.1
COc1ccc2[nH]cc(C(=O)NC3CCNCC3)c2c1	6.7	–	0	3160
COc1cc(N)c(Cl)cc1C(=O)NC1CCN(CCS(=O)(=O)O)CC1	1.5	1580	> 100	25100
COc1cc(N)c(Cl)cc1C(=O)NC1CCN(CCCCCO)CC1	110	15.8	> 100	63.1
COc1cc(N)c(Cl)cc1C(=O)NC1CCNCC1	0.095	398	> 100	1580
CC(C)n1c(=O)c(C(=O)N[C@H]2C[C@H]3CC[C@@H](C2)N3CCO)cc2ccccc21	3.2	31.6	> 100	126
CC(C)n1nc(C(=O)NC2CCNCC2)c2ccccc21	0.52	200	50	398
CC(C)n1nc(C(=O)NCC2CCNCC2)c2ccccc21	3	–	0	7.94
COc1cc(N)c(Cl)cc1C(=O)NCCN1CCNCC1	1.1	501	> 100	1260
CC(C)n1c(=O)c(C(=O)N[C@H]2C[C@H]3CC[C@@H](C2)N3CCCCCCCCN2CCN(S(C)(=O)=O)CC2)cc2ccccc21	2100	3.16	> 100	15.8
CC(C)n1c(=O)c(C(=O)N[C@H]2C[C@H]3CC[C@@H](C2)N3CCCCCN2C(=O)c3ccccc3C2=O)cc2ccccc21	1200	25.1	> 100	15.8
CC(C)n1nc(C(=O)N[C@H]2C[C@H]3CC[C@@H](C2)N3)c2ccccc21	0.092	39.8	94	63.1
COc1cc(N)c(Cl)cc1C(=O)NC1CCN(CCN2CCCCC2)CC1	3.9	100	> 100	251
CC(C)n1c(=O)c(C(=O)N[C@H]2C[C@H]3CC[C@@H](C2)N3CCCCCCCCN(C)CCc2c[nH]c3ccccc23)cc2ccccc21	2300	1	> 100	3.16
COc1cc(N)c(Cl)cc1C(=O)NC1CCN(CCCCCCCCN2CCN(S(C)(=O)=O)CC2)CC1	330	39.8	> 100	15.8
COc1cc(N)c(Cl)cc1C(=O)NC1CCN(CCO)CC1	1.9	63.1	> 100	200
COc1cc(N)c(Cl)cc1C(=O)NC1CCN(CCN(C)CCc2c[nH]c3ccccc23)CC1	290	15.8	> 100	39.8
CC(C)n1c(=O)c(C(=O)N[C@H]2C[C@H]3CC[C@@H](C2)N3CCCCCO)cc2ccccc21	460	25.1	> 100	63.1

SMILES	Ratio Ki (Homo sapiens)	EC50 [1] [nM]	Intrinsic activity [2] [%]	Ki [3] [nM]
COc1ccc2[nH]cc(C(=O)N[C@H]3C[C@H]4CC[C@@H](C3)N4)c2c1	1.4	2510	77	3160
CC(C)n1c(=O)c(C(=O)N[C@H]2C[C@H]3CC[C@@H](C2)N3CCCCCCCCO)cc2ccccc21	1100	15.8	> 100	50.1
CCCCCCCCN1[C@@H]2CC[C@H]1C[C@@H](NC(=O)c1cc3ccccc3n(C(C)C)c1=O)C2	150	39.8	> 100	63.1
COc1cc(N)c(Cl)cc1C(=O)NCC1CCNCC1	0.12	398	81	316
COc1cc(N)c(Cl)cc1C(=O)N[C@H]1C[C@H]2CC[C@@H](C1)N2	0.2	100	57	158
CCCCCN1CCC(NC(=O)c2cc(Cl)c(N)cc2OC)CC1	33	25.1	> 100	100
CCN1[C@@H]2CC[C@H]1C[C@@H](NC(=O)c1cc3ccccc3n(C(C)C)c1=O)C2	19	31.6	96	126
CC(C)n1c(=O)c(C(=O)N[C@H]2C[C@H]3CC[C@@H](C2)N3CCCCCS(=O)(=O)O)cc2ccccc21	21	12.6	> 100	1580
CC(C)n1c(=O)n(C(=O)N[C@H]2C[C@H]3CC[C@@H](C2)N3)c2ccccc21	0.013	15.8	> 100	316
CC(C)n1c(=O)c(C(=O)N[C@H]2C[C@H]3CC[C@@H](C2)N3CCCCCCCCS(=O)(=O)O)cc2ccccc21	230	20	> 100	63.1
COc1cc(N)c(Cl)cc1C(=O)NC1CCN(CCCCCN2CCN(S(C)(=O)=O)CC2)CC1	280	12.6	> 100	39.8
CC(C)n1c(=O)n(C(=O)NC2CCNCC2)c2ccccc21	0.019	316	> 100	1580
COc1cc(N)c(Cl)cc1C(=O)NC1CCN(CCCCCN2C(=O)c3ccccc3C2=O)CC1	120	5.01	> 100	20
COc1ccc2[nH]cc(C(=O)NCCN3CCNCC3)c2c1	25	–	0	316
COc1ccc2[nH]cc(C(=O)NCC3CCNCC3)c2c1	1.1	6310	42	3980
COc1cc(N)c(Cl)cc1C(=O)NC1CCN(CCCCCN(C)CCc2c[nH]c3ccccc23)CC1	12000	1.26	> 100	1.58
CCN1CCC(NC(=O)c2cc(Cl)c(N)cc2OC)CC1	4.2	79.4	> 100	1000
CC(C)n1c(=O)c(C(=O)N[C@H]2C[C@H]3CC[C@@H](C2)N3CCCCCCCCN2CCCCC2)cc2ccccc21	9900	1.26	99	3.16
CC(C)n1c(=O)c(C(=O)NCC2CCNCC2)cc2ccccc21	1.2	100	> 100	794
